# Measurements published in patent US20260061082A1, “PROSTATE-SPECIFIC MEMBRANE ANTIGEN TARGETED DEEP-TUMOR PENETRATION OF POLYMER NANODRUGS AND METHODS OF USE THEREOF” (priority 2022, published 2026).
# Several values for one entry are separate records, joined by “and”; a condition that tells them apart may be missing. Identical values can stand only once. Like-named read-outs stand apart in the source and are kept apart here.
# Experiments:
# [1] = target: T1, PSMA (PSMA+ PC3-Pip cells) (Homo sapiens, UniProt Q04609); test: 68Ga-PSMA-11 competition radioligand binding assay
# T1 construct: host or cells: PC3-Pip (PSMA+ subline of PC-3)
# Method: Competition Radioligand Binding Assay: The nanoparticles were utilized in a ^68Ga-PSMA-11 competition radioligand binding assay to obtain the IC50 values, similar to our prior method. […] PC3-Pip cells were seeded in 96-well plates (˜20 k cells/wells) ˜24 h prior testing in RPMI1640 medium containing with 10% FBS and 1% penicillin/streptomycin. The growth medium was discarded, and the cells were washed with PBS two times. […] The treated cells were incubated for 1 h at room temperature. Then, the radioactive medium was discarded, and the cells were washed twice with PBS. The cells in each well were then treated with NaOH (5N, 250 μL) and incubated for 30 min at 37° C. for lysis. The lysate from each well was collected in vials and analyzed in a Hidex gamma counter to quantify the bound activity. IC50 was calculated by nonlinear regression analysis in Graph-Pad Prism software.
# Competition Radioligand Binding Assay: Similar to our prior reported protocol, ^68Ga-PSMA-11 was produced in a ^68Ge/^68Ga generator, and used in a competition radioligand binding assay to acquire the IC50 values for the nanocarriers. […] After 1 h incubated at room temperature, the radioactive medium was removed, and the cells were washed with PBS twice. The cells were lyzed with sodium hydroxide and the radioactivity of the lysate in each well was counted in a Hidex gamma counter. IC50 was determined by nonlinear regression analysis in Prism software (Graph-Pad).
# [2] = target: PSMA (Homo sapiens, UniProt Q04609); settings: previously reported; cited from earlier work
# [3] = tested on: PC3-Pip metastatic tumors; test: Ex vivo organ biodistribution of [68Ga]PSMA-11 in PC3-Pip metastatic models after treatment; settings: Control mice (no 177Lu nanocarrier), individual mice
# [4] = tested on: PSMA+ PC3-Pip subcutaneous tumors; test: Treatment study in PSMA+ PC3-Pip subcutaneous models; format: in vivo, mice; settings: 250 μCi single dose
# Method: The tumor measurements were carried out twice a week, and tumor volumes were calculated by formula V=[length×(width)^2]/2.
# [5] = tested on: PSMA+ PC3-Pip subcutaneous tumors; settings: prior literature; cited from earlier work
# [6] = tested on: prostate specific antigen; settings: patients receiving as low as 14 Gy tumor-absorbed dose; cited from earlier work
# T1 sequence (Q04609 whole entry): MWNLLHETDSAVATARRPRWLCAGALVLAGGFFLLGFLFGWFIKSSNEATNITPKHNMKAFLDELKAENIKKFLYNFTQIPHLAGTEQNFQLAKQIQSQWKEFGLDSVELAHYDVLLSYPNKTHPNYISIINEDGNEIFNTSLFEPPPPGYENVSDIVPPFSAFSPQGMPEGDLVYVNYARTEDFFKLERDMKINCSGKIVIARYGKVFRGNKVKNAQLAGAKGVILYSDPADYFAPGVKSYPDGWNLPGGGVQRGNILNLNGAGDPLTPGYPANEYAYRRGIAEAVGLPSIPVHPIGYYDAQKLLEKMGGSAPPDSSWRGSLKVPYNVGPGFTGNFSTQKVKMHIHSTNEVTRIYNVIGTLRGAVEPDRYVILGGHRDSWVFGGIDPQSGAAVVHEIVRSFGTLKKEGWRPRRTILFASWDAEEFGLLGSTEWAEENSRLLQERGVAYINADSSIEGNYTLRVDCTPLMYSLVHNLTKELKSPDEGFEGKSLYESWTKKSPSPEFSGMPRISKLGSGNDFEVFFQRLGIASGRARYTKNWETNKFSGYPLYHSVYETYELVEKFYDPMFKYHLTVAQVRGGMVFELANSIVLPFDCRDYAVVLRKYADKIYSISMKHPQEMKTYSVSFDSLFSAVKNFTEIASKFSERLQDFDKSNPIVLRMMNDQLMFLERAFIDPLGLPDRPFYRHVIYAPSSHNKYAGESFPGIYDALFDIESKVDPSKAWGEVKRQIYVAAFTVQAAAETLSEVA
# PSMA, sequence (Q04609 whole entry, species assumed): as the sequence (Q04609 whole entry) above
smiles,measurement,setting,value
[N-]=[N+]=NCCCCCCOC(=O)NCCCC[C@H](NC(=O)N[C@@H](CCC(=O)O)C(=O)O)C(=O)O [Azido-ACUPA],IC50,"[1]; Table 2 Experiment 1, unlabeled",350 nM
same,IC50,"[1]; Table 10 Experiment 2, unlabeled",328 nM
O=C(O)CC[C@H](NC(=O)N[C@@H](CCCCNC(=O)Nc1ccc(I)cc1)C(=O)O)C(=O)O [PSMA-2],IC50,"[1]; Table 10 Experiment 1, unlabeled",25.5 nM
same,Ki,[2],0.24 nM
O=C([O-])CN(CCN(CC(=O)[O-])Cc1cc(CCC(=O)NCCCCCC(=O)NCCCC[C@H](NC(=O)N[C@@H](CCC(=O)O)C(=O)O)C(=O)O)ccc1[O-])Cc1cc(CCC(=O)O)ccc1[O-].[68Ga+3].[OH3+] [[^68Ga]PSMA-11],"[^68Ga]PSMA-11 ex vivo organ biodistribution, Blood",[3]; day 35,0.114 % ID/g and 0.2999 % ID/g and 0.08 % ID/g and 0.1 % ID/g and 0.06 % ID/Organ and 0.2029 % ID/Organ and 0.05813 % ID/Organ and 0.05324 % ID/Organ
same,"[^68Ga]PSMA-11 ex vivo organ biodistribution, Bone",[3]; day 35,0.335 % ID/g and 0.215 % ID/g and 0.2269 % ID/g and 0.3033 % ID/g and 0.08 % ID/Organ and 0.05419 % ID/Organ and 0.04439 % ID/Organ and 0.06845 % ID/Organ
same,"[^68Ga]PSMA-11 ex vivo organ biodistribution, Brain",[3]; day 35,0.046 % ID/g and 0.01371 % ID/g and 0.02404 % ID/g and 0.03404 % ID/g and 0.02 % ID/Organ and 0.004254 % ID/Organ and 0.009255 % ID/Organ and 0.01265 % ID/Organ
same,"[^68Ga]PSMA-11 ex vivo organ biodistribution, Heart",[3]; day 35,1.938 % ID/g and 1.093 % ID/g and 0.8842 % ID/g and 0.9371 % ID/g and 0.29 % ID/Organ and 0.1577 % ID/Organ and 0.1548 % ID/Organ and 0.1476 % ID/Organ
same,"[^68Ga]PSMA-11 ex vivo organ biodistribution, Large Int",[3]; day 35,0.663 % ID/g and 0.3338 % ID/g and 0.1292 % ID/g and 0.592 % ID/g and 0.09 % ID/Organ and 0.08014 % ID/Organ and 0.03072 % ID/Organ and 0.1919 % ID/Organ
same,"[^68Ga]PSMA-11 ex vivo organ biodistribution, Liver",[3]; day 35,0.855 % ID/g and 0.4054 % ID/g and 0.232 % ID/g and 0.289 % ID/g and 0.62 % ID/Organ and 0.2982 % ID/Organ and 0.1099 % ID/Organ and 0.2246 % ID/Organ
same,"[^68Ga]PSMA-11 ex vivo organ biodistribution, Lung",[3]; day 35,8.218 % ID/g and 1.814 % ID/g and 1.285 % ID/g and 1.336 % ID/g and 3.12 % ID/Organ and 0.2767 % ID/Organ and 0.1869 % ID/Organ and 0.2393 % ID/Organ
same,"[^68Ga]PSMA-11 ex vivo organ biodistribution, Muscle",[3]; day 35,0.414 % ID/g and 0.2044 % ID/g and 0.2192 % ID/g and 0.1624 % ID/g and 0.2 % ID/Organ and 0.05644 % ID/Organ and 0.04564 % ID/Organ and 0.04172 % ID/Organ
same,"[^68Ga]PSMA-11 ex vivo organ biodistribution, Pancreas",[3]; day 35,0.464 % ID/g and 0.2066 % ID/g and 0.2297 % ID/g and 0.5007 % ID/g and 0.04 % ID/Organ and 0.02448 % ID/Organ and 0.03206 % ID/Organ and 0.07795 % ID/Organ
same,"[^68Ga]PSMA-11 ex vivo organ biodistribution, Skin",[3]; day 35,3.25 % ID/g and 0.586 % ID/g and 0.9817 % ID/g and 0.4433 % ID/g and 1.08 % ID/Organ and 0.2667 % ID/Organ and 0.196 % ID/Organ and 0.2187 % ID/Organ
same,"[^68Ga]PSMA-11 ex vivo organ biodistribution, Small Int",[3]; day 35,0.29 % ID/g and 0.1397 % ID/g and 0.1663 % ID/g and 0.1479 % ID/g and 0.03 % ID/Organ and 0.02347 % ID/Organ and 0.03142 % ID/Organ and 0.02756 % ID/Organ
same,"[^68Ga]PSMA-11 ex vivo organ biodistribution, Splcon",[3]; day 35,22.586 % ID/g and 8.851 % ID/g and 8.108 % ID/g and 16.38 % ID/g
same,"[^68Ga]PSMA-11 ex vivo organ biodistribution, Spleen",[3]; day 35,1.34 % ID/Organ and 1.068 % ID/Organ and 0.7168 % ID/Organ and 1.253 % ID/Organ
same,"[^68Ga]PSMA-11 ex vivo organ biodistribution, Stomach",[3]; day 35,0.171 % ID/g and 0.3271 % ID/g and 0.1157 % ID/g and 0.09441 % ID/g and 0.16 % ID/Organ and 0.1002 % ID/Organ and 0.07062 % ID/Organ and 0.08055 % ID/Organ
same,"[^68Ga]PSMA-11 ex vivo organ biodistribution, Blood",[3]; day 50,0.212 % ID/g and 0.29 % ID/g and 0.207 % ID/g and 0.07 % ID/g and 0.13 % ID/Organ and 0.26 % ID/Organ and 0.14 % ID/Organ
same,"[^68Ga]PSMA-11 ex vivo organ biodistribution, Bone",[3]; day 50,0.398 % ID/g and 1.082 % ID/g and 0.335 % ID/g and 0.768 % ID/g and 0.06 % ID/Organ and 0.07 % ID/Organ and 0.05 % ID/Organ
same,"[^68Ga]PSMA-11 ex vivo organ biodistribution, Brain",[3]; day 50,0.037 % ID/g and 0.073 % ID/g and 0.024 % ID/g and 0.025 % ID/g and 0.01 % ID/Organ and 0.02 % ID/Organ
same,"[^68Ga]PSMA-11 ex vivo organ biodistribution, Heart",[3]; day 50,1.037 % ID/g and 1.182 % ID/g and 0.615 % ID/g and 0.906 % ID/g and 0.16 % ID/Organ and 0.09 % ID/Organ and 0.14 % ID/Organ and 0.18 % ID/Organ
same,"[^68Ga]PSMA-11 ex vivo organ biodistribution, Large Int",[3]; day 50,0.766 % ID/g and 0.402 % ID/g and 1.093 % ID/g and 1.205 % ID/g and 0.12 % ID/Organ and 0.06 % ID/Organ and 0.24 % ID/Organ and 0.25 % ID/Organ
same,"[^68Ga]PSMA-11 ex vivo organ biodistribution, Liver",[3]; day 50,2.351 % ID/g and 1.41 % ID/g and 0.215 % ID/g and 0.336 % ID/g and 3.36 % ID/Organ and 0.35 % ID/Organ and 0.3 % ID/Organ and 0.41 % ID/Organ
same,"[^68Ga]PSMA-11 ex vivo organ biodistribution, Lungs",[3]; day 50,4.185 % ID/g and 14.472 % ID/g and 1.403 % ID/g and 2.187 % ID/g and 0.55 % ID/Organ and 1.74 % ID/Organ and 0.19 % ID/Organ and 0.34 % ID/Organ
same,"[^68Ga]PSMA-11 ex vivo organ biodistribution, Muscle",[3]; day 50,0.335 % ID/g and 0.498 % ID/g and 0.405 % ID/g and 0.533 % ID/g and 0.04 % ID/Organ and 0.06 % ID/Organ and 0.11 % ID/Organ and 0.09 % ID/Organ
same,"[^68Ga]PSMA-11 ex vivo organ biodistribution, Pancreas",[3]; day 50,0.568 % ID/g and 0.668 % ID/g and 0.447 % ID/g and 0.649 % ID/g and 0.05 % ID/Organ and 0.07 % ID/Organ and 0.06 % ID/Organ
same,"[^68Ga]PSMA-11 ex vivo organ biodistribution, Skin",[3]; day 50,1.068 % ID/g and 2.397 % ID/g and 0.883 % ID/g and 0.807 % ID/g and 0.62 % ID/Organ and 0.6 % ID/Organ and 0.31 % ID/Organ and 0.33 % ID/Organ
same,"[^68Ga]PSMA-11 ex vivo organ biodistribution, Small Int",[3]; day 50,0.365 % ID/g and 0.631 % ID/g and 0.23 % ID/g and 0.289 % ID/g and 0.05 % ID/Organ and 0.09 % ID/Organ and 0.06 % ID/Organ and 0.07 % ID/Organ
same,"[^68Ga]PSMA-11 ex vivo organ biodistribution, Spleen",[3]; day 50,10.073 % ID/g and 86.889 % ID/g and 5.37 % ID/g and 8.812 % ID/g and 0.58 % ID/Organ and 1.25 % ID/Organ and 0.94 % ID/Organ and 1.1 % ID/Organ
same,"[^68Ga]PSMA-11 ex vivo organ biodistribution, Stomach",[3]; day 50,0.605 % ID/g and 0.424 % ID/g and 0.154 % ID/g and 0.107 % ID/g and 0.34 % ID/Organ and 0.17 % ID/Organ and 0.12 % ID/Organ and 0.11 % ID/Organ
O=C([O-])CN1CCN(CC(=O)[O-])CCN(CC(=O)NCC2CCC(C(=O)N[C@@H](Cc3ccc4ccccc4c3)C(=O)NCCCC[C@H](NC(=O)N[C@@H](CCC(=O)O)C(=O)O)C(=O)O)CC2)CCN(CC(=O)[O-])CC1.[177Lu+3] (stereo partly shown) [[^177Lu]PSMA-617],median survival,[4],46 days
same,median survival,[5],51 days
same,reduction of prostate specific antigen,[6],more than 50%
